The assay concerns the target T1, MIF (Homo sapiens, UniProt P14174).
T1 sequence (P14174 2-115 limits assumed): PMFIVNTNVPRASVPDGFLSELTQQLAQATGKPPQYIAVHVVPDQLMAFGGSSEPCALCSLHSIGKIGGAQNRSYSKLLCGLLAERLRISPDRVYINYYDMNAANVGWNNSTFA
Nature of the assay: MIF tautomerase assay using pHPP as substrate. The format is biochemical. As to conditions: inhibition of the MIF enzyme in vitro; mean of multiple test results; read-out: Tautomerase Inhibition pIC50 (converted). The method in brief:
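Mean pIC50 derived from initial rates (absorbance progress-curve slopes) of MIF-catalyzed ketonic-to-enolic pHPP conversion, read as enol–borate complex. Reactions contained 1.5 mM substrate and 3 nM enzyme (final), 200 mM boric acid stock buffer, BSA and CHAPS, pH 6.0.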

Experimental findings from patent US20220144838A1, “Compounds as Inhibitors of Macrophage Migration Inhibitory Factor” (NANJING IMMUNOPHAGE BIOTECH CO., LTD., priority 2019, published 2022) are described below.

In the case of `Nc1nc(N2CCN(c3ccc(CCO)cc3)CC2)nc2c1ncn2-c1ccncc1` [Example 191, 2-(4-(4-(6-amino-9-(pyridin-4-yl)-9H-purin-2-yl)piperazin-1-yl)phenyl)ethan-1-ol], the IC50 was over 10 µM.
The figure for `Nc1nc(N2CCN(c3ccc(CO)cc3)CC2)nc2c1ncn2-c1ccncc1` [Example 192, (4-(4-(6-amino-9-(pyridin-4-yl)-9H-purin-2-yl)piperazin-1-yl)phenyl)methanol] is over 10 µM.
Regarding `Nc1nc(N2CCN(c3ccc(C(=O)O)cn3)CC2)nc2c1ncn2-c1ccncc1` [Example 193, 6-(4-(6-amino-9-(pyridin-4-yl)-9H-purin-2-yl)piperazin-1-yl)nicotinic acid], the IC50 is over 10 µM.
Regarding `NC(=O)c1ccc(N2CCN(c3nc(N)c4ncn(-c5ccncc5)c4n3)CC2)nc1` [Example 194, 6-(4-(6-amino-9-(pyridin-4-yl)-9H-purin-2-yl)piperazin-1-yl)nicotinamide], the IC50 was over 10 µM.
Turning to `Nc1nc(N2CCC(n3cc(C(=O)O)cn3)CC2)nc2c1ncn2-c1ccncc1` [Example 195, 1-(1-(6-amino-9-(pyridin-4-yl)-9H-purin-2-yl)piperidin-4-yl)-1H-pyrazole-4-carboxylic acid], the IC50 was over 10 µM.
The figure for `Nc1nc(N2CCN(c3ccc(CO)cn3)CC2)nc2c1ncn2-c1ccncc1` [Example 196, (6-(4-(6-amino-9-(pyridin-4-yl)-9H-purin-2-yl)piperazin-1-yl)pyridin-3-yl)methanol] is over 10 µM.
The figure for `Nc1nc(N2CCC(O)(C#CCO)CC2)nc2c1ncn2-c1ccncc1` [Example 198, 1-(6-amino-9-(pyridin-4-yl)-9H-purin-2-yl)-4-(3-hydroxyprop-1-yn-1-yl)piperidin-4-ol] is over 10 µM; for `Nc1nc(N2CC(O)(c3cn[nH]c3)C2)nc2c1ncn2-c1ccncc1` [Example 199, 1-(6-amino-9-(pyridin-4-yl)-9H-purin-2-yl)-3-(1H-pyrazol-4-yl)azetidin-3-ol] it is over 10 µM.
On to `OC1(c2cn[nH]c2)CN(c2ncc3ncn(-c4ccncc4)c3n2)C1` [Example 200, 3-(1H-pyrazol-4-yl)-1-(9-(pyridin-4-yl)-9H-purin-2-yl)azetidin-3-ol], for which the IC50 is over 10 µM.
Regarding `Nc1nc(N2CC(O)(c3nccs3)C2)nc2c1ncn2-c1ccncc1` [Example 201, 1-(6-amino-9-(pyridin-4-yl)-9H-purin-2-yl)-3-(thiazol-2-yl)azetidin-3-ol], the IC50 is over 10 µM.
`Nc1nc(N2CCC(O)(c3ccccc3)CC2)nc2c1ncn2-c1ccncc1` [Example 202, 1-(6-amino-9-(pyridin-4-yl)-9H-purin-2-yl)-4-phenylpiperidin-4-ol]: the IC50 was over 10 µM.
Next, `Cc1cc(-n2cnc3c(C)nc(N4CCC(O)(c5ccc(O)cc5)CC4)nc32)ccn1` [Example 203, 4-(4-hydroxyphenyl)-1-(6-methyl-9-(2-methylpyridin-4-yl)-9H-purin-2-yl)piperidin-4-ol]: over 10 µM.
Next, `Cc1nc(N2CCC(O)(c3ccc(O)cc3)CC2)nc2c1ncn2-c1cccnc1` [Example 204, 4-(4-hydroxyphenyl)-1-(6-methyl-9-(pyridin-3-yl)-9H-purin-2-yl)piperidin-4-ol]: 0.01 to 0.0977 µM; `CN(CC(=O)O)c1nc(N2CCC(O)(c3ccc(O)cc3)CC2)nc2c1ncn2-c1ccncc1` [Example 205, N-(2-(4-hydroxy-4-(4-hydroxyphenyl)piperidin-1-yl)-9-(pyridin-4-yl)-9H-purin-6-yl)-N-methylglycine]: 0.1 to 0.977 µM; `Cc1nc(N2CCC(O)(c3cccc(O)c3)CC2)nc2c1ncn2-c1ccncc1` [Example 206, 4-(3-hydroxyphenyl)-1-(6-methyl-9-(pyridin-4-yl)-9H-purin-2-yl)piperidin-4-ol]: 0.1 to 0.977 µM.
`Oc1ccc(C2(O)CCN(c3nc(N4C[C@H](O)[C@@H](O)C4)c4ncn(-c5ccncc5)c4n3)CC2)cc1` [Example 207, (3S,4S)-1-(2-(4-hydroxy-4-(4-hydroxyphenyl)piperidin-1-yl)-9-(pyridin-4-yl)-9H-purin-6-yl)pyrrolidine-3,4-diol]: the IC50 is 0.1 to 0.977 µM.
